# Data as given in patent US20250000801A1, “DAROLUTAMIDE PHARMACEUTICAL COMPOSITION, PREPARATION METHOD THEREFOR AND USE THEREOF” (Sinotherapeutics Inc., priority 2021, published 2025).
# Read-outs that look alike come from different tables or passages of the source.
# Assays:
# [1] = Determination of dissolution, USP II method (paddle method); format: physicochemical; conditions: phosphate buffer pH 6.8, 1000 ml, 75 rpm
# Method: In the following examples, the dissolution of the formulation is determined using the USP II method (paddle method) in the US Pharmacopoeia, with specific parameters as follows.
# According to the above procedures, the dissolutions of Darolutamide in phosphate buffer, pH 6.8 were determined and the results were shown in Table 9.
# [2] = cited from earlier work
# [3] = cited from earlier work; remark: listed apart in the source
# [4] = system: non-metastatic castration-resistant prostate cancer (nmCRPC); conditions: Phase III, cited from earlier work
# physchem = conditions: 37.2 °C, pH 6.8, aqueous buffer, thermodynamic from solid
# Method: About 200 mg of sample is weighted into a 50 ml shaking flask and then 50 ml of medium with pH of 6.8 is added. The shaking flask is mixed well and placed in a shaker. The shaker temperature is set as 37.2° C. and the rotation speed is set as 50 rpm. The sample is taken at 4 hours and 0.45 μM filter membrane is used for filtration to collect filtrate. High-performance liquid chromatography is used for determination with wavelength at 286 nm.
# [5] = single dose pharmacokinetic study
smiles,measurement,setting,value
"CC(O)c1cc(C(=O)N[C@@H](C)Cn2ccc(-c3ccc(C#N)c(Cl)c3)n2)n[nH]1 (stereo partly drawn) [Darolutamide, N-[(1S)-2-[3-(3-chloro-4-cyanophenyl)-1H-pyrazol-1-yl]-1-methylethyl]-5-(1-hydroxyethyl)-1H-pyrazole-3-carboxamide]",Dissolution,[1]; 5 min,7%
same,Dissolution,[1]; 15 min,10%
same,Dissolution,[1]; 30 min,9%
same,Dissolution,[1]; 45 min,12%
same,BCS classification,[2]; low solubility and high permeability,BCS Class II
same,solubility in aqueous media,[2]; pH 1-6.8,14 to 23 µg/mL
same,bioavailability,"[3]; 300 mg, fasting state",about 30%
same,coefficient of variation (CV %) of AUC(0-4),[3]; administration dosage of 300 mg,69.6%
same,coefficient of variation (CV %) of AUC(0-4),[3]; administration dosage of 600 mg,41.4%
same,increase of AUC(0-4) in feeding state,[3]; after administration of 300 mg or 600 mg,2.5 fold
same,increase of bioavailability in feeding state,[3]; single dose administration of 300 mg,2.5 fold
same,increase of bioavailability in feeding state,[3]; single dose administration of 600 mg,2.8 fold
same,end half-life,[3]; [5],10 to 15 h
same,median Tmax,[3]; [5],3 to 6 h
same,reduction of the risk of disease metastasis or death,[4]; Darolutamide combined with ADT vs placebo combined with ADT,59%
same,median metastasis free survival (MFS),[4]; Darolutamide combined with ADT,40.4 months
same,solubility at 4 h,physchem,24.9 µg/mL
